Assay [1] relates to Drosophila larvae expressing i(CUG)480. The assay can be described thus: Larval crawling assay in DM1 Drosophila. The assay is classed as in vivo. Particulars: 400 μM; untreated i(CUG)480 9 lines/min. From the text: To test the abilities of 2 and 9 to improve the locomotor behavior of Drosophila larvae, we used crawling assays (Nichols et al., J. Vis. Exp. 61, e3795 (2012); Lanson et al., Hum. Mol. Genet. 20, 2510-2523 (2011); Batlevi et al., Proc. Natl. Acad. Sci. U.S.A. 107, 742-747 (2010)). […] Those expressing i(CUG)480 (SEQ ID NO: 17) crossed only 9 lines/min (FIG. 9b). […] Importantly, the phenotypic improvement with both compounds was dose-dependent and 9 in all cases provided greater phenotypic reversal than did 2.
Drosophila lines were cultured in standard cornmeal medium supplemented with dry yeasts. Fly lines bearing UAS-(CTG)60 (SEQ ID NO: 5) and UAS-(CTG)480 (SEQ ID NO: 6) were kind gifts of Prof. Rubén Artero Allepuz (Universitat de València, Estudi General, Spain). The gmr-GAL4 and 24B-GAL4 lines were used to drive UAS transgene expression in eye and muscles respectively. Ligands 2 and 9 were dissolved in ddH2O and mixed with fly food. […]
Larval crawling assays were performed as described in Lanson et al (Hum. Mol. Genet. 20, 2510-2523 (2011)). […] The larvae were allowed to acclimate for a period of 1 min, and the total number of gridlines that the posterior end of the larvae passed in 1 min was determined Each set of experiment was repeated independently three times using larvae collected from separate genetic crosses.

Assay [2] has as its system (CUG)n. The assay can be described thus: Ligand-RNA binding affinity, (CUG)n. From the text: (§1) Off target activity is a concern for any therapeutic agent but especially one designed to cleave RNA. To test the selectivity of agents 6 and 9, the screening gel assay described above was applied to other RNA targets, specifically cTNT32, (CCUG)8 (SEQ ID NO: 11), and HIV-1 frameshift site RNA (HIV FS) (FIG. 5a). Both 6 and 9 were quite selective. […] Thus, both similarly adopt stem-loop structures with internal loops within the stem, although obviously of different sequences. Differences between 6 and 9 were observed (FIG. 5) with the former cleaving (CCUG)8 (SEQ ID NO: 11), the toxic RNA involved in myotonic dystrophy type 2 (DM2). […] The ability to process the RNA directly parallels the corresponding ligand-RNA binding affinities. Thus, 1, which contains the acridine-triazine core of agent 6, complexes the (CCUG)6 (SEQ ID NO: 12) and (CUG)n sequences.

Assay [3] concerns (CCUG)6 / (CCUG)8. The assay can be described thus: Ligand-RNA binding affinity, CCUG repeats. The conditions noted are these: (CCUG)8.
From the text: as §1

For assay [4], the system named is SV40 terminator mRNA in i(CUG)480 larvae. As to the kind of experiment: SV40 mRNA level in i(CUG)480 larvae (real-time PCR). The class given is in vivo, Drosophila. Particulars: relative to actin RNA.
The subject of assay [5] is d(CTG.CAG)12. The assay can be described thus: Isothermal titration calorimetry, d(CTG.CAG)12. The class given is binding. Particulars: 25° C., 20 mM MOPS pH 7.0, 300 mM NaCl. The method, then:
To directly assess the DNA-targeting ability of 9, ITC experiments were performed with oligonucleotide analogs of the various trinucleotide repeat sequences (Table 1). […] This supports the idea that 9 inhibits the transcription of CTG^exp by stabilizing its hairpin structure. […] The in vitro transcription experiment using (CTG[…]CAG)74 (SEQ ID NOS 3-4, respectively) and compounds 2, 5-7, and 9 was repeated but with (CUG)16 (SEQ ID NO: 1) added as a competitor.
Isothermal titration calorimetry (ITC) measurements were performed at 25° C. on a MicroCal VP-ITC (MicroCal, Inc., Northampton, Mass.). A standard experiment consisted of titrating 10 μL of a 500 μM ligand solution from a […] syringe (rotating at 300 rpm) into a sample cell containing 1.42 mL of a 10 μM DNA or RNA solution. An ITC experiment consisted of 28 total injections (first injection was 5 μL, subsequent injections were 10 μL), with a 10 s duration per injection and delay of 380 s between injections. The initial delay prior to the first injection was 300 s. To derive the heat associated with each injection, the area under each isotherm (microcalories per second versus seconds) was determined by integration by the graphing program Origin 7.0 (MicroCal, Inc. Northampton, Mass.). […]

Assay [6] concerns SV40 terminator mRNA in i(CUG)60 larvae. The assay can be described thus: SV40 mRNA level in i(CUG)60 larvae (real-time PCR). The assay is classed as in vivo, Drosophila. Particulars: 400 μM.
The test system of assay [7] is DM1 Drosophila expressing i(CTG)480. As to the kind of experiment: External eye assay in DM1 Drosophila. The assay is classed as in vivo.
Method: Drosophila lines were cultured in standard cornmeal medium supplemented with dry yeasts. […] The gmr-GAL4 and 24B-GAL4 lines were used to drive UAS transgene expression in eye and muscles respectively. Ligands 2 and 9 were dissolved in ddH2O and mixed with fly food. Genetic crosses were set up in drug-containing fly food at 21.5° C. for external eye assay, and at 25° C. for larval crawling assay and real-time PCR analysis.
In assay [8] the test system is MBNL1-CUGexp nuclear foci in HeLa cells transfected with GFP-DT960. Particulars: DM1 model cell cultures; cited from earlier work.

Entries after “also recorded” stand apart in the source; their conditions may differ.

Turning to `N=C(NCCCCNc1nc(N)nc(N)n1)c1ccc(C(=N)NCCCCNc2nc(N)nc(N)n2)cc1` [Ligand 2], the average crawling speed result in assay [1] is given as “ca. 13 lines/min”. Also, in assay [2], the “complexation of (CUG)n” value was “complexes”. Also, the “affinity toward (CCUG)8” value in assay [3] is “no affinity”. The “reduction of SV40 mRNA levels in i(CUG)480 larvae” value in assay [4] was “did not”. Also, the “binding affinity toward d(CTG.CAG)12 by ITC” value in assay [5] is on record as “lack of binding affinity”. Also, the “SV40 mRNA levels in larvae having i(CUG)60” value in assay [6] was “no change”. Also, the “disease phenotype in DM1 fly eyes at 200 μM” value in assay [7] (200 μM) was “reversed the disease phenotype”. Also, the “neurodegenerative (glossy and rough-eye) phenotype” value in assay [7] (in fly food, 6 d) was “reversal of the disease phenotype but less effectively; also recorded: improved the neurodegeneration”. Moreover, the “dissolution of MBNL1-CUGexp nuclear foci (earlier work)” value in assay [8] is given as “dissolved the MBNL1-CUG^exp nuclear foci”.
